From PMC12366332 (Applied and Environmental Microbiology, 2025)
Ends that are not written are not given here.

What was measured:
[1] = test system: X. fastidiosa subsp. fastidiosa IVIA 5387.2; details: 50 µM
E. coli 0111:B4 LPS = type: biochemical, Escherichia coli
horse erythrocytes = details: red cells of horse, 50 µM
tobacco leaves = details: 150 µM; after 48 h

| Compound | Bactericidal activity Level [1] | Bactericidal activity Reduction in viability (Log N0/N) [1] | LPS neutralization Ratio (treatment/NTC) (E. coli 0111:B4 LPS) | Hemolytic activity (%) (horse erythrocytes) | Phytotoxicity: diameter of the lesion (tobacco leaves) |
| --- | --- | --- | --- | --- | --- |
| CCCC(=O)NCCCC[C@H](NC(=O)[C@H](CCCCN)NC(=O)[C@H](CCCCN)NC(=O)[C@@H](Cc1ccccc1)NC(=O)[C@H](CC(C)C)NC(=O)[C@H](CCCCN)NC(=O)[C@H](CCCCN)NC(C)=O)C(=O)N[C@@H](CC(C)C)C(=O)N[C@@H](CCCCN)C(=O)N[C@@H](Cc1ccc(O)cc1)C(=O)N[C@@H](CC(C)C)C(N)=O [BP548, Ac-KKLfKKK(COC3H7)LKYL-NH2] | Low (key: Very High: very high bactericidal activity (>2.5 log); High: high bactericidal activity (between 2.0 and 2.5 log); Moderate: a moderate activity (between 1.5 and 2.0 log); Low: low active (<1.5 log)) | 0,28 Log N0/N | 0,65 | 0% | 6 mm |
| CCCC(=O)NCCCC[C@H](NC(=O)[C@H](CCCCN)NC(=O)[C@H](CCCCN)NC(C)=O)C(=O)N[C@H](Cc1ccccc1)C(=O)N[C@@H](CCCCN)C(=O)N[C@@H](CCCCN)C(=O)N[C@H](C(=O)N[C@@H](CC(C)C)C(=O)N[C@@H](CCCCN)C(=O)N[C@@H](Cc1ccc(O)cc1)C(=O)N[C@@H](CC(C)C)C(N)=O)[C@@H](C)CC [BP549, Ac-KKK(COC3H7)fKKILKYL-NH2] | Low (key: Very High: very high bactericidal activity (>2.5 log); High: high bactericidal activity (between 2.0 and 2.5 log); Moderate: a moderate activity (between 1.5 and 2.0 log); Low: low active (<1.5 log)) | 1,19 Log N0/N | 1,10 | 1% | 5 mm |
| CCCC(=O)NCCCC[C@@H](NC(=O)[C@H](CC(C)C)NC(=O)[C@H](CCCCN)NC(=O)[C@H](CCCCN)NC(C)=O)C(=O)N[C@@H](CCCCN)C(=O)N[C@@H](CCCCN)C(=O)N[C@H](C(=O)N[C@@H](CC(C)C)C(=O)N[C@@H](CCCCN)C(=O)N[C@@H](Cc1ccc(O)cc1)C(=O)N[C@@H](CC(C)C)C(N)=O)[C@@H](C)CC [BP550, Ac-KKLk(COC3H7)KKILKYL-NH2] | Low (key: Very High: very high bactericidal activity (>2.5 log); High: high bactericidal activity (between 2.0 and 2.5 log); Moderate: a moderate activity (between 1.5 and 2.0 log); Low: low active (<1.5 log)) | 0,00 Log N0/N | 1,09 | 3% | 5 mm |
| NIKISGKWKAQKRFLK-NH2 [BPI(84-99), NIKISGKWKAQKRFLK-NH2, reference compound] | Low (key: Very High: very high bactericidal activity (>2.5 log); High: high bactericidal activity (between 2.0 and 2.5 log); Moderate: a moderate activity (between 1.5 and 2.0 log); Low: low active (<1.5 log)) | 0,84 Log N0/N | 0,29 | 7% | 1 mm |
| RVQGRWKVRASFFK-NH2 [LBP-14, RVQGRWKVRASFFK-NH2, reference compound] | Low (key: Very High: very high bactericidal activity (>2.5 log); High: high bactericidal activity (between 2.0 and 2.5 log); Moderate: a moderate activity (between 1.5 and 2.0 log); Low: low active (<1.5 log)) | 0,51 Log N0/N | 0,23 | 7% | 1 mm |
| YVKLWRMIKFIR-NH2 [YW12D, YVKLWRMIKFIR-NH2, reference compound] | Low (key: Very High: very high bactericidal activity (>2.5 log); High: high bactericidal activity (between 2.0 and 2.5 log); Moderate: a moderate activity (between 1.5 and 2.0 log); Low: low active (<1.5 log)) | 0,59 Log N0/N | 0,21 | 12% | 1 mm |
